Several values for one entry are separate records, joined by “and”; a condition that tells them apart may be missing. Equal entries are not always repeated.
Legend:
[1] = target: Cyclin-dependent kinase 8 (Homo sapiens) (UniProt P49336); conditions: INHIBITOR, dose 2000.0 nM
Description: Inhibition of human CDK8 at 2000 nM by KINOMEscan assay

[2] = target: Serine/threonine-protein kinase NLK (Homo sapiens) (UniProt Q9UBE8); experiment: Inhibition of human NLK assessed as percent of control at 2000 nM by KINOMEscan assay relative to control; parameters: scale not given: the % may be the effect or the level left
[3] = target: Casein kinase II subunit alpha' (Homo sapiens) (UniProt P19784); experiment: Inhibition of human CSNK2A2 assessed as percent of control at 2000 nM by KINOMEscan assay relative to control; parameters: scale not given: the % may be the effect or the level left
[4] = system: Hepatocyte growth factor receptor (Homo sapiens), P08581 [Y1235D]; experiment: Inhibition of human MET Y1235D mutant assessed as percent of control at 2000 nM by KINOMEscan assay relative to control; parameters: scale not given: the % may be the effect or the level left
[5] = target: Mitogen-activated protein kinase kinase kinase 13 (Homo sapiens) (UniProt O43283); experiment: Inhibition of human LZK assessed as percent of control at 2000 nM by KINOMEscan assay relative to control; parameters: scale not given: the % may be the effect or the level left
[6] = target: Tyrosine-protein kinase HCK (Homo sapiens) (UniProt P08631); experiment: Inhibition of human HCK assessed as percent of control at 2000 nM by KINOMEscan assay relative to control; parameters: scale not given: the % may be the effect or the level left
[7] = target: Cyclin-dependent kinase 19 (Homo sapiens) (UniProt Q9BWU1); experiment: Inhibition of human CDK11 assessed as percent of control at 2000 nM by KINOMEscan assay relative to control; parameters: scale not given: the % may be the effect or the level left; conditions: INHIBITOR
[8] = target: Mitogen-activated protein kinase kinase kinase 20 (Homo sapiens) (UniProt Q9NYL2); experiment: Inhibition of human ZAK assessed as percent of control at 2000 nM by KINOMEscan assay relative to control; parameters: scale not given: the % may be the effect or the level left
[9] = target: Tyrosine-protein kinase Fes/Fps (Homo sapiens) (UniProt P07332); experiment: Inhibition of human FES assessed as percent of control at 2000 nM by KINOMEscan assay relative to control; parameters: scale not given: the % may be the effect or the level left
[10] = target: Calcium/calmodulin-dependent protein kinase kinase 2 (Homo sapiens) (UniProt Q96RR4); experiment: Inhibition of human CAMKK2 assessed as percent of control at 2000 nM by KINOMEscan assay relative to control; parameters: scale not given: the % may be the effect or the level left
[11] = target: Tyrosine-protein kinase Fyn (Homo sapiens) (UniProt P06241); experiment: Inhibition of human FYN assessed as percent of control at 2000 nM by KINOMEscan assay relative to control; parameters: scale not given: the % may be the effect or the level left
[12] = target: Calcium/calmodulin-dependent protein kinase type II subunit delta (Homo sapiens) (UniProt Q13557); experiment: Inhibition of human CAMK2D assessed as percent of control at 2000 nM by KINOMEscan assay relative to control; parameters: scale not given: the % may be the effect or the level left
[13] = target: Serine/threonine-protein kinase Nek5 (Homo sapiens) (UniProt Q6P3R8); experiment: Inhibition of human NEK5 assessed as percent of control at 2000 nM by KINOMEscan assay relative to control; parameters: scale not given: the % may be the effect or the level left
[14] = target: Dual specificity tyrosine-phosphorylation-regulated kinase 2 (Homo sapiens) (UniProt Q92630); experiment: Inhibition of human DYRK2 assessed as percent of control at 2000 nM by KINOMEscan assay relative to control; parameters: scale not given: the % may be the effect or the level left
[15] = target: Cyclin-dependent kinase 13 (Homo sapiens) (UniProt Q14004); experiment: Inhibition of human CDC2L5 assessed as percent of control at 2000 nM by KINOMEscan assay relative to control; parameters: scale not given: the % may be the effect or the level left
[16] = system: Mast/stem cell growth factor receptor Kit (Homo sapiens), P10721 [D816H]; experiment: Inhibition of human KIT D816H mutant assessed as percent of control at 2000 nM by KINOMEscan assay relative to control; parameters: scale not given: the % may be the effect or the level left
[17] = target: TGF-beta receptor type-1 (Homo sapiens) (UniProt P36897); experiment: Inhibition of human TGFBR1 assessed as percent of control at 2000 nM by KINOMEscan assay relative to control; parameters: scale not given: the % may be the effect or the level left
[18] = target: Ephrin type-A receptor 1 (Homo sapiens) (UniProt P21709); experiment: Inhibition of human EPHA1 assessed as percent of control at 2000 nM by KINOMEscan assay relative to control; parameters: scale not given: the % may be the effect or the level left
[19] = target: Serine/threonine-protein kinase PAK 2 (Homo sapiens) (UniProt Q13177); experiment: Inhibition of human PAK2 assessed as percent of control at 2000 nM by KINOMEscan assay relative to control; parameters: scale not given: the % may be the effect or the level left
[20] = target: MAP kinase-interacting serine/threonine-protein kinase 2 (Homo sapiens) (UniProt Q9HBH9); experiment: Inhibition of human MKNK2 assessed as percent of control at 2000 nM by KINOMEscan assay relative to control; parameters: scale not given: the % may be the effect or the level left
[21] = target: Mitogen-activated protein kinase kinase kinase kinase 3 (Homo sapiens) (UniProt Q8IVH8); experiment: Inhibition of human MAP4K3 assessed as percent of control at 2000 nM by KINOMEscan assay relative to control; parameters: scale not given: the % may be the effect or the level left
[22] = target: Serine/threonine-protein kinase 32B (Homo sapiens) (UniProt Q9NY57); experiment: Inhibition of human YANK2 assessed as percent of control at 2000 nM by KINOMEscan assay relative to control; parameters: scale not given: the % may be the effect or the level left
[23] = target: Tyrosine-protein kinase ABL1 (Homo sapiens) (UniProt P00519); experiment: Inhibition of non-phosphorylated human ABL1 assessed as percent of control at 2000 nM by KINOMEscan assay relative to control; parameters: scale not given: the % may be the effect or the level left
[24] = system: Phosphatidylinositol 4,5-bisphosphate 3-kinase catalytic subunit alpha isoform (Homo sapiens), P42336 [E542K]; experiment: Inhibition of human PIK3CA E542K mutant assessed as percent of control at 2000 nM by KINOMEscan assay relative to control; parameters: scale not given: the % may be the effect or the level left
[25] = target: Mitogen-activated protein kinase kinase kinase 9 (Homo sapiens) (UniProt P80192); experiment: Inhibition of human MLK1 assessed as percent of control at 2000 nM by KINOMEscan assay relative to control; parameters: scale not given: the % may be the effect or the level left
[26] = target: Ribosomal protein S6 kinase alpha-2 (Homo sapiens) (UniProt Q15349); experiment: Inhibition of human C-terminal RSK3 kinase domain 2 assessed as percent of control at 2000 nM by KINOMEscan assay relative to control; parameters: scale not given: the % may be the effect or the level left
[27] = system: Tyrosine-protein kinase ABL1 (Homo sapiens), P00519 [F317I]; experiment: Inhibition of phosphorylated human ABL1 F317I mutant assessed as percent of control at 2000 nM by KINOMEscan assay relative to control; parameters: scale not given: the % may be the effect or the level left
[28] = target: Rho-associated protein kinase 1 (Homo sapiens) (UniProt Q13464); experiment: Inhibition of human ROCK1 assessed as percent of control at 2000 nM by KINOMEscan assay relative to control; parameters: scale not given: the % may be the effect or the level left
[29] = target: BDNF/NT-3 growth factors receptor (Homo sapiens) (UniProt Q16620); experiment: Inhibition of human TRKB assessed as percent of control at 2000 nM by KINOMEscan assay relative to control; parameters: scale not given: the % may be the effect or the level left
[30] = target: Hormonally up-regulated neu tumor-associated kinase (Homo sapiens) (UniProt P57058); experiment: Inhibition of human HUNK assessed as percent of control at 2000 nM by KINOMEscan assay relative to control; parameters: scale not given: the % may be the effect or the level left
[31] = target: Rhodopsin kinase GRK1 (Homo sapiens) (UniProt Q15835); experiment: Inhibition of human GRK1 assessed as percent of control at 2000 nM by KINOMEscan assay relative to control; parameters: scale not given: the % may be the effect or the level left

Chain of TGF-beta receptor type-1 (Homo sapiens) (P36897 whole entry): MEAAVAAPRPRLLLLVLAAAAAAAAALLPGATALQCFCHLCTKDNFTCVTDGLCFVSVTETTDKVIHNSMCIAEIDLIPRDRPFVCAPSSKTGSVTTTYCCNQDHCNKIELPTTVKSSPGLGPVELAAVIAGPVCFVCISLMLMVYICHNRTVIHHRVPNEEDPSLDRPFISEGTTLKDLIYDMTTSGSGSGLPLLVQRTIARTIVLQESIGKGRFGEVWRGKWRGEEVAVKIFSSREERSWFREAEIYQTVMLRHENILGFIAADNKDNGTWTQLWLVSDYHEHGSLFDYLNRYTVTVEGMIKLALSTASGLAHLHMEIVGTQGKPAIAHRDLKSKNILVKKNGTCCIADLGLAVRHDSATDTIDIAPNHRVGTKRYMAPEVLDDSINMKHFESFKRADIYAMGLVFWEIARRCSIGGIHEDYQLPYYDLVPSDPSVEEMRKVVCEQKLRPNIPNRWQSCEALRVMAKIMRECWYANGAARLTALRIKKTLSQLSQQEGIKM
Chain of Cyclin-dependent kinase 13 (Homo sapiens) (Q14004 whole entry, looked up): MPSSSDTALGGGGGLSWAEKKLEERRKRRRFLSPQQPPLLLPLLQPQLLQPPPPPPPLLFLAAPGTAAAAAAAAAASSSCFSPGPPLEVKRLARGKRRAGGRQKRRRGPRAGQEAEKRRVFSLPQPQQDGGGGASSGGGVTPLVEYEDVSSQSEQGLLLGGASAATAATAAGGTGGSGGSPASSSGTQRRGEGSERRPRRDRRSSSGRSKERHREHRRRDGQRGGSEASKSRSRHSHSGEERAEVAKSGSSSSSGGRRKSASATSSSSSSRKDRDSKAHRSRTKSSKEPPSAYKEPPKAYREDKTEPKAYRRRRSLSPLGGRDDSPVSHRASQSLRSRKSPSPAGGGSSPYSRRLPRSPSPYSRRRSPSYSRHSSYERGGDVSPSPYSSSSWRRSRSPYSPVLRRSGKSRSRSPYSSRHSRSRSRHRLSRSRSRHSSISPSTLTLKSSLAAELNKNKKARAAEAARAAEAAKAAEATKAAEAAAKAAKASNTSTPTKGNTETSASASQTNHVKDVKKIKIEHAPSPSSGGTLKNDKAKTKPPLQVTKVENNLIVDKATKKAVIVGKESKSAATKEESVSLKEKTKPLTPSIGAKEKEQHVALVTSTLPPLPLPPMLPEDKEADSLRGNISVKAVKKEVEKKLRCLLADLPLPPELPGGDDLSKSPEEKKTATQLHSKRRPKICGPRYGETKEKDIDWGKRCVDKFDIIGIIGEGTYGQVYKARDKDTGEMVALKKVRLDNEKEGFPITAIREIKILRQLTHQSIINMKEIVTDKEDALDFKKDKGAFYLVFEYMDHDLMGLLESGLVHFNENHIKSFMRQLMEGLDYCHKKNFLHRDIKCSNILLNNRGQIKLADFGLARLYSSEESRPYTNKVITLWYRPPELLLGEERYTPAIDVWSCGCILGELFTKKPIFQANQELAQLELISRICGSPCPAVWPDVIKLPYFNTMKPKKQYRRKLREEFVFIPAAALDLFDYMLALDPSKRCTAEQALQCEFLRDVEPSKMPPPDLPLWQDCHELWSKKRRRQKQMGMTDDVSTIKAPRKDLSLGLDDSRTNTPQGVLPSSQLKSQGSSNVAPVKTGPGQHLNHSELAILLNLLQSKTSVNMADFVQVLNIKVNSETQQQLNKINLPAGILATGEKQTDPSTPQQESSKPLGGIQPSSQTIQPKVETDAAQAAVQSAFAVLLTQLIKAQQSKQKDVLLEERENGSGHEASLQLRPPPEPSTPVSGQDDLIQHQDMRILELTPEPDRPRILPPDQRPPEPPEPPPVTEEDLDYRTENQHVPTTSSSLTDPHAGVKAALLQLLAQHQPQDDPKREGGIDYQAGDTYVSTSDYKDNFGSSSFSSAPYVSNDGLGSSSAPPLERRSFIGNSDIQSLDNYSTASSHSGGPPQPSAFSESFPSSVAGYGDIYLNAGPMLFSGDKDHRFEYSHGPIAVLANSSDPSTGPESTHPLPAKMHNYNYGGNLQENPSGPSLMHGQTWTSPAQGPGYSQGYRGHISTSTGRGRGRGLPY
Chain of Phosphatidylinositol 4,5-bisphosphate 3-kinase catalytic subunit alpha isoform (Homo sapiens), P42336 [E542K] (P42336 whole entry E542K, canonical isoform): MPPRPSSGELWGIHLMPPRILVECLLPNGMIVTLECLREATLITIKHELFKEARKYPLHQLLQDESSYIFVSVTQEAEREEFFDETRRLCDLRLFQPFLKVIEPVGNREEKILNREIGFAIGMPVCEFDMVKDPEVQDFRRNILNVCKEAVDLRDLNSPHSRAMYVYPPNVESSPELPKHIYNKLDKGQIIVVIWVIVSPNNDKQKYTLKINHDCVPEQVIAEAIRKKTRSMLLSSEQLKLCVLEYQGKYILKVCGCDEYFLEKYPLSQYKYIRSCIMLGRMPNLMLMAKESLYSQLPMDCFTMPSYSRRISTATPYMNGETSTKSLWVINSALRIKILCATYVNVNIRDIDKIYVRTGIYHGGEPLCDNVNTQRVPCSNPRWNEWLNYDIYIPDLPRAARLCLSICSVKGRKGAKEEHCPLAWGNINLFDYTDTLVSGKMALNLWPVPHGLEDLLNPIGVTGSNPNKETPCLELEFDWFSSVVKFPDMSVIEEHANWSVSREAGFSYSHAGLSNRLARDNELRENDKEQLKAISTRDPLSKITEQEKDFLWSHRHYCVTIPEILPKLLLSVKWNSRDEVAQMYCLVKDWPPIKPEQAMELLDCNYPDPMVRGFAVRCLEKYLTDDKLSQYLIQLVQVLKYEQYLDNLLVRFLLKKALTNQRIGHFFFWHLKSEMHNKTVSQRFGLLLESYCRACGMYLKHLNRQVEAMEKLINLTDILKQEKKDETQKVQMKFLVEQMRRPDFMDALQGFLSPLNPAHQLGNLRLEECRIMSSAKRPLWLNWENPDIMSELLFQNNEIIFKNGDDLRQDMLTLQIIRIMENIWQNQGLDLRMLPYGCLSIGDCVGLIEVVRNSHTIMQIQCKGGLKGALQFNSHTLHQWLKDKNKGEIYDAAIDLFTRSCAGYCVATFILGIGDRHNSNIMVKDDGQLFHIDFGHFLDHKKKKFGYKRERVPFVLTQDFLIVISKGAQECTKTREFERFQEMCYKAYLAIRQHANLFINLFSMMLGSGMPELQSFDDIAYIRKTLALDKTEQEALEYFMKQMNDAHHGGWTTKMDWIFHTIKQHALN
Chain of Hormonally up-regulated neu tumor-associated kinase (Homo sapiens) (P57058 whole entry): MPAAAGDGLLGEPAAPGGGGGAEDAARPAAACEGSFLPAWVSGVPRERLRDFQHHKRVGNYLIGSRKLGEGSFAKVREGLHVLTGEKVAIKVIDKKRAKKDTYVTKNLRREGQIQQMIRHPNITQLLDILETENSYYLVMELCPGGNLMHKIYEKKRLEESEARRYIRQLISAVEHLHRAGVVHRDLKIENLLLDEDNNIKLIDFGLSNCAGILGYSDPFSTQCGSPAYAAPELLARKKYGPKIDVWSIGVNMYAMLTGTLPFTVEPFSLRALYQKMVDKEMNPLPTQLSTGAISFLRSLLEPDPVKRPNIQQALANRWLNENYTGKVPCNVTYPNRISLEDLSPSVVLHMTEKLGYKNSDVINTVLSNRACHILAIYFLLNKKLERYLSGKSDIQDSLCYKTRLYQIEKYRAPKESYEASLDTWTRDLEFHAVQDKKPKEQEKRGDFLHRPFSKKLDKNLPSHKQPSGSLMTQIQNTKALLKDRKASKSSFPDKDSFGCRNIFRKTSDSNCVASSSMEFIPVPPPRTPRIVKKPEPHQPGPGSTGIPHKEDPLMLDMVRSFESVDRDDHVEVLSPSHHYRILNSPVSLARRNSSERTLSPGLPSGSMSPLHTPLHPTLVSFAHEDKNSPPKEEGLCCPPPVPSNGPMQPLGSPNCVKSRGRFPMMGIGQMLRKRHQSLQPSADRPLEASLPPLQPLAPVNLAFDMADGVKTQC
Chain of Calcium/calmodulin-dependent protein kinase kinase 2 (Homo sapiens) (Q96RR4 2-588 limits assumed): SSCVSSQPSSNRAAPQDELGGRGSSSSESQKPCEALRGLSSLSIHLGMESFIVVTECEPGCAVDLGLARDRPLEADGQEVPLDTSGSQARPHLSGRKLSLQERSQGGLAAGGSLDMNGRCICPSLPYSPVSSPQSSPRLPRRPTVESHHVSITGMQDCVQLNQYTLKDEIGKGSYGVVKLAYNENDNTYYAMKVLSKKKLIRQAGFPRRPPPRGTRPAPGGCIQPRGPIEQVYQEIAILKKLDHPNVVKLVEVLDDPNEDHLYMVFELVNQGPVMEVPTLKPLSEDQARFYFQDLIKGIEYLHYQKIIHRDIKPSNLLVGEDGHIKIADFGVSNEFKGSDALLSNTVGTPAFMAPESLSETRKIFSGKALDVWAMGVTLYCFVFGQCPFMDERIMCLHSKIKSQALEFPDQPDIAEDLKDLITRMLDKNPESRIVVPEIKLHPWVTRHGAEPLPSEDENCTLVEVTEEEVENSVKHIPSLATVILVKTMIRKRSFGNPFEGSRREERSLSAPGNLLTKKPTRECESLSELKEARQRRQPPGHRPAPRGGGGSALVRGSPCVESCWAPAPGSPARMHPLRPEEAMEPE
Chain of Tyrosine-protein kinase HCK (Homo sapiens) (P08631 2-526 limits assumed): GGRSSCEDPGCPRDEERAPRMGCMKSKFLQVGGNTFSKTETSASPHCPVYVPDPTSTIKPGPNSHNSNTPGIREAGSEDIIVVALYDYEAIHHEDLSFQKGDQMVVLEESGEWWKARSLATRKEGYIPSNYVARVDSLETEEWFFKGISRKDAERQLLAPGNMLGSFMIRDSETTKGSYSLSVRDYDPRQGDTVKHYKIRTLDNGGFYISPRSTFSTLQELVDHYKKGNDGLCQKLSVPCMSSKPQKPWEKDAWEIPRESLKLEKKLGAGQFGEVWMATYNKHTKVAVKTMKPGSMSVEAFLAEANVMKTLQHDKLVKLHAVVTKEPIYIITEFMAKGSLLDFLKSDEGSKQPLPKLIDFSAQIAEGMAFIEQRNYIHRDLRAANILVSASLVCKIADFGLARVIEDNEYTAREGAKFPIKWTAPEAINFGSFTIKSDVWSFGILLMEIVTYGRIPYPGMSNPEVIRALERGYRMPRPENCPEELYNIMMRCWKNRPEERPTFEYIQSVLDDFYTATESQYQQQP

`CN(C)C(=O)c1ccc(N2CCCN(c3ccnc4sc(C(N)=O)c(N)c34)CC2)cc1` was tested, and the inhibition [1] was greater than 65%, the Activity [2] was 98% and the Activity [3] was 92% and 100%. For the same compound, the Activity [4] was 100%, the Activity [5] was 100% and 87% and the Activity [6] was 96%. For the same compound, the Activity [7] was 13% and 0%, the Activity [8] was 94% and 100% and the Activity [9] was 100%. The Activity [10] was 100% and 87%, the Activity [11] was 99% and 97% and the Activity [12] was 99% and 92%. For the same compound, the Activity [13] was 94% and 100%, the Activity [14] was 100% and 97% and the Activity [15] was 71% and 80%. The Activity [16] was 91% and 66%, the Activity [17] was 100% and the Activity [18] was 92% and 95%. The Activity [19] was 91% and 94%, the Activity [20] was 83% and 69% and the Activity [21] was 91% and 95%. The Activity [22] was 89% and 84%, the Activity [23] was 95% and 78% and the Activity [24] was 92% and 74%. For the same compound, the Activity [25] was 95% and 92%, the Activity [26] was 100% and 89% and the Activity [27] was 88% and 84%. The Activity [28] was 77% and 67%, the Activity [29] was 88% and 78% and the Activity [30] was 99% and 100%. For the same compound, the Activity [31] was 98% and 81%.

— ChEMBL document CHEMBL4804286, “3-amino-4-(4-(4 (dimethylcarbamoyl) phenyl)-1,4-diazepan-1-yl) thieno [2,3-b] pyridine-2-carboxamide for use in cancer therapy and formulations comprising the same” (2020)
